From article PMC4712933, “Development of Follicle-Stimulating Hormone Receptor Binding Probes to Image Ovarian Xenografts” (Journal of biotechnology & biomaterials, 2015)
pEC50: −log10 of the molar value. Where a SMILES comes first, the peptide text is derived from it. The star is where a group is joined. 5FAM = O=C1OC2(c3ccc(O)cc3Oc3cc(O)ccc32)c2ccc(C(=O)*)cc21

Legend:
[1] = system: FSHR; settings: low doses; cited from earlier work
Text: Their small effective hydrodynamic diameter, high washout rates, and rapid renal filtration are highly valued for in vivo imaging, where an optimal tumor-to-reference tissue ratio (TRR) can be quickly reached. This was de ...

[2] = biological target: T1, FSHR on OVCAR-3 cells (Homo sapiens, UniProt P23945); experiment: Flow cytometry binding of BI-10^FAM to OVCAR-3 cells
T1 construct: endogenous in cells; host or cells: OVCAR-3 cells
T1 sequence (P23945 18-695): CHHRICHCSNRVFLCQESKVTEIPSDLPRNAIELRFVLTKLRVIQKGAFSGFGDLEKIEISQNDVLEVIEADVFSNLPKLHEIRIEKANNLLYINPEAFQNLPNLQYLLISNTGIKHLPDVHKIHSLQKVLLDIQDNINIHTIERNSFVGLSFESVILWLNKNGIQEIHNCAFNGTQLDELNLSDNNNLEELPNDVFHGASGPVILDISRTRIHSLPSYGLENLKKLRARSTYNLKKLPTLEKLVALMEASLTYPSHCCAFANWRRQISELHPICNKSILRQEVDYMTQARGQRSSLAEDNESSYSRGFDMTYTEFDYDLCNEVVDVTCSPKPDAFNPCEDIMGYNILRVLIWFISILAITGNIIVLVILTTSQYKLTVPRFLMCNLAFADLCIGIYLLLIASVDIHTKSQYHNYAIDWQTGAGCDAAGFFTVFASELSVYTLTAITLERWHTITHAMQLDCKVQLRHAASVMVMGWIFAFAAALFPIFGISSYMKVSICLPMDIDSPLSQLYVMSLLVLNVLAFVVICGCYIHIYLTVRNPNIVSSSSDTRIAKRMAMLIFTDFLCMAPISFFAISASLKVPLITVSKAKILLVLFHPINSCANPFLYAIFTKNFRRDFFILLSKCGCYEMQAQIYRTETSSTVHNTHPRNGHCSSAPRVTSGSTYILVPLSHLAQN
Experimental: OVCAR-3 cells (generously provided by Dr. Mellisa Fishell of Indiana University School of Medicine) were chosen for in vitro binding experiment due to its high level of FSHR expression. For the first 2–3 passages, the cells were plated in […] flasks using RPMI medium (supplemented with 5 μM Insulin (Sigma), 20% FBS (Hyclone), Sodium private (GIBCO), and Pen Strep (GIBCO)), and placed in an incubator (5% CO2 at a temperature of 37°C incubator) to maintain viability. For peptide binding experiments, cells were plated in six-well plates with the medium and environment conditions as previously described. Medium was changed every 2–3 days until cells reached more than 90% confluency. […] These samples were ready for imaging within the flow cytometer. […]
Each sample of OVCAR-3 cells was placed within the flow cytometer (Beckman Coulter FC500) and the FITC fluorescent intensity from the BI-10^FAM peptide bound to the OVCAR-3 cells were acquired. A TOPO-3 dye (Sigma) in 1 nM concentration was used to acquire the fluorescence from only viable cells in a two-color flow cytometry assay. Ten thousand cells were counted and the fluorescence measured in each sample. […] The EC50 value (binding affinity) and receptor saturation intensity were calculated using a nonlinear regression analysis using GraphPad Prism fitting algorithm (GraphPad Software, Inc.). […]

[3] = system: FSHR; settings: cited from earlier work
Text: FSHR belongs to G protein-coupled receptor and consists of a transmembrane and an extracellular domain, where the former is characterized by a seven helical repeats and the latter by multiple leucine-rich repeats. FSHR is expressed on normal ovarian epithelium, e.g., the fallopian tubal epithelium, and shares about 70% transmembrane domain sequence with other G protein-coupled receptors, such as L ...

[4] = system: FSHR-rich Sertoli cells; settings: FSHR-rich Sertoli cells from Bovine Calf testes; ref 29 (Lee et al); read-out: EC50, radio-ligand binding assay; cited from earlier work

| Compound | physiologic effects [1] | pEC50 ([2]; OVCAR-3 cells, BI-10^FAM, 30 min incubation, 37°C incubator, 1.0-500 μM, wash with PBS, 5 mM EDTA detachment, median FITC fluorescence, flow cytometry, TOPO-3 viable gate, 10,000 cells, nonlinear regression, R^2=0.93, average of three measurements (Figure 1: n=5), read-out: EC50 (binding affinity, dose response curve)) | binding to FSHR, in words ([3]; functional radio ligand receptor assay, synthetic BI-10) | inhibition of FSH-stimulated estradiol and cAMP synthesis, in words ([3]; synthetic BI-10 peptide, high concentrations) | binding to FSHR, in words ([2]; BI-10 binding curves) | pEC50 [4] |
| --- | --- | --- | --- | --- | --- | --- |
| CC(C)C[C@H](NC(=O)[C@H](CC(N)=O)NC(=O)[C@H](CCC(=O)O)NC(=O)[C@@H](NC(=O)c1ccc2c(c1)C(=O)OC21c2ccc(O)cc2Oc2cc(O)ccc21)[C@@H](C)O)C(=O)N[C@@H](CCC(=O)O)C(=O)N1CCC[C@H]1C(=O)N[C@@H](CC(N)=O)C(=O)NCC(=O)N[C@@H](CCC(=O)O)C(=O)NCC(N)=O [BI-10^FAM] (5FAM-TENLEPNGEG-NH2) | negligible physiologic effects when used in low doses | 3.80 | – | – | – | – |
| TENLEPNGEGNH2 [BI-10] | – | – | specifically binds to FSHR | inhibits FSH-stimulated estradiol and secondary messenger cAMP synthesis at high concentrations | highly specific but low in affinity | ~3.52 |
